According to publication PMC11312998, “Molecular Pro-Apoptotic Activities of Flavanone Derivatives in Cyclodextrin Complexes: New Implications for Anticancer Therapy” (International Journal of Molecular Sciences, 2024):
Each block holds one molecule with its values, some of them ahead of it.

Key:
Type in all cases: cell-based, human
[1] = tested on: Hec-1-A; assay: Plasma membrane fluidity, TMA-DPH fluorescence anisotropy; settings: IC50 concentration, 24 h
Experimental: (§1) Changes in plasma membrane fluidity were determined by fluorescence spectroscopy and two fluorescent probes located at different depths of the lipid bilayer: TMA-DPH ((1-(4-Trimethylammoniumphenyl)-6-Phenyl-1,3,5-Hexatriene p-Toluene sulfonate, Sigma-Aldrich; St. Louis, MO, USA) and DAUDA (11-[5-(Dimethylamino)-1-naphthalenesulfonylamino] undecanoic acid, Sigma-Aldrich, St. Louis, MO, USA). TMA-DPH is incorporated in the superficial area of the outer monolayer, while DAUDA penetrates into the deeper hydrophobic area of the membrane. The fluorescence of the probes was measured on a Perkin-Elmer spectrofluorometer (Waltham, MA, USA) with an attachment for measuring fluorescence anisotropy with parallel and perpendicular positions of the polarizers.
(§2) Cells were seeded on sterile 35 mm dishes in numbers appropriate for a given cell line. […] After 24 h incubation, the cells were trypsinized and transferred to Eppendorf tubes (0.5 mL of suspension/sample). The cell suspension was centrifuged at 2500 rpm for 5 min at 4 °C. […] Fluorescence measurements were made on a Perkin-Elmer LS-5B spectrofluorometer (MA, USA) in an attachment with a polarizer, reading the fluorescence anisotropy at an excitation wavelength λex = 365 nm and emission wavelength λem = 425 nm (TMA-DPH), as well as excitation wavelength λex = 350 nm and emission wavelength λem = 420 nm (DAUDA).

[2] = tested on: Hec-1-A; assay: Superoxide anion generation, DHE probe; settings: IC50 concentration, 24 h
Experimental: (§3) The level of superoxide anion (O2^•−) was determined by microplate spectrofluorimetry with dihydroethidium (hydroethidine, DHE) (Life Technologies, Carlsbad, CA, USA), which is the most commonly used fluorogenic probe for monitoring the intracellular production of superoxide anion O2^•− [41]. […] Thanks to this shift, DHE can be used as a sensitive probe for cellular ROS. The reaction between superoxide and DHE generates a highly specific red fluorescent product, 2-hydroxyethidium (2-OH-E^+).
(§4) The cells were seeded in black 96-well fluorometric microplates at a density of 10 × 10^3 cells per well. […] After incubation, the medium was removed, the cell monolayer in the wells was washed twice with HBSS (140 mM NaCl, 5 mM KCl, 0.8 mM MgCl2, 1.8 mM CaCl2, 1 mM Na2HPO4, 10 mM HEPES and 1% glucose) and 50 μL of DHE solution in HBSS was added to each well (final probe concentration 5 μmol/L). Cells were incubated with the probe for 30 min in the dark in an incubator (37 °C), and then fluorescence was measured. The measurement was performed at the following excitation and fluorescence emission wavelengths: λex = 498 nm/λem = 582 nm. Fluorescence measurements were made on a Perkin-Elmer LS-5B spectrofluorometer (MA, USA). Fluorescence intensity values for control cells were arbitrarily set as 100%. The results are presented as percentages of control cell values, calculated relative to the fluorescence intensity of the controls (100%): sample fluorescence was calculated as Δf in relation to the controls.

[3] = tested on: RBCs; assay: Erythrocyte morphology, phase contrast microscopy; settings: 100 µmol/L; 24 h, 37 °C
Experimental: The experiments on human blood were performed in accordance with Polish national guidelines, and the study protocols were approved by the Bioethics Committee of the Medical University of Lodz, Poland: approval no (RNN/104/20/KE). The blood samples were obtained from healthy donors at the Blood Donation Centre in Lodz. The procedure for […] for erythrotoxicity studies is given in a previous paper. The influence of the synthesized compounds, together with a reference compound on RBC membrane integrity, was performed by lysis assay, described elsewhere. Briefly, 2% RBC suspension in 0.9% NaCl was incubated at 37 °C for 24 h with the tested compounds at concentrations of 100 µmol/L, 50 µmol/L, 25 µmol/L, 10 µmol/L and 1 µmol/L. The samples were centrifuged at 3000 rpm for 10 min, and the absorbance of the supernatant was measured at 550 nm. The results are presented as a percentage of hemolysis where a sample containing 10 μL of 2.0% v/v Triton X-100 was regarded as a positive control contributing to 100% of hemolysis. A sample containing saline solution represented the spontaneous hemolysis of RBCs (control). The experiments were conducted using at least three different biological materials (n = 3). […] Additionally, erythrocyte morphology was evaluated using a phase contrast Opta-Tech inverted microscope at 400× magnification.

[4] = tested on: Ishikawa; assay: Plasma membrane fluidity, TMA-DPH fluorescence anisotropy; settings: IC50 concentration, 24 h
Experimental: as §1, §2

[5] = tested on: HCC38; assay: Superoxide anion generation, DHE probe; settings: IC50 concentration, 24 h
Experimental: as §3, §4

[6] = tested on: Hec-1-A; assay: Nitric oxide (RNS) generation, DAF-FM diacetate probe; settings: IC50 concentration, 24 h
Experimental: (§5) Diaminofluorescein-FM diacetate (DAF-FM diacetate, Invitrogen, Carlsbad, CA, USA), is a widely employed cell permeant fluorescent reagent for the detection and quantification of reactive nitrogen species (RNS), particularly nitric oxide (NO). […] However, upon reaction with NO, it undergoes a transformation that yields a highly fluorescent benzotriazole derivative (excitation/emission maxima: λex = 495, λem = 515 nm).
(§6) The cells were seeded in black 96-well fluorometric microplates at a density of 10 × 10^3 cells per well. […] After incubation with the compounds, the medium was removed, the cell monolayer in the wells was washed twice with HBSS (140 mM NaCl, 5 mM KCl, 0.8 mM MgCl2, 1.8 mM CaCl2, 1 mM Na2HPO4, 10 mM HEPES and 1% glucose) and 50 μL of DAF-FM diacetate solution in HBSS was added to each well (final probe concentration 5 μmol/L). Cells were incubated with the probe for 30 min in the dark in an incubator (37 °C). After incubation, the probe was removed and replaced with fresh HBSS buffer and then incubated for an additional 30 min to allow for complete de-esterification of the intra cellular diacetates. After this time, the fluorescence was measured. The measurement was performed at the following excitation and fluorescence emission wavelengths: λex = 495 nm/λem = 515 nm. Fluorescence was measured on a Perkin-Elmer LS-5B spectrofluorometer (MA, USA). Fluorescence intensity values for control cells were arbitrarily set as 100%. The results are presented as percentages of control cells calculated on the basis of a comparison of the fluorescence intensity ratio of test samples and controls (100%) (fluorescence of samples was calculated as Δf in relation to the control).

[7] = tested on: HCC38; assay: as above; settings: IC50 concentration, 24 h
Experimental: as §5, §6

- RBC morphology (in words) [3]: appearance of single eryptocytes
SMILES: COc1cccc(/C=C2/C(=O)c3ccccc3OC2c2ccccc2)c1 (stereo not shown) [Compound 3]
- increase in cell membrane fluidity (TMA-DPH) [1]: approximately 20%
- rise of superoxide anion level compared to the control (DHE probe) [2]: approximately 20%

SMILES: O=C1/C(=C/c2ccccc2)C(c2ccccc2)Oc2ccccc21 (stereo not shown) [Compound 5]
- increase in cell membrane fluidity (TMA-DPH) [4]: approximately 20%

SMILES: O=C1/C(=C/c2ccccc2)COc2ccccc21 [Compound 1]
- increase in superoxide anion / ROS relative to control (DHE probe) [5]: approximately 20%
- increase in nitric oxide production (DAF-FM) [6]: approximately 20%
- increase in nitric oxide production (DAF-FM) [7]: approximately 15%
